In brackets after ≈: the same amount, converted by molar mass.

MIC values data for ten molecules are collected here from patent US4599334A, “7-(3-aryl-1-piperazinyl)- and 7-(3-cyclohexyl-1-piperazinyl)-3-quinolonecarboxylic acid antibacterials” (Bayer Aktiengesellschaft, priority 1984, dated 1986).

Assay type in all cases: cell-based
Holding throughout (settings): agar dilution test/isosensitest agar, unit assumed
In general terms: Agar dilution tests growth on a series of plates holding different concentrations.

Assay [1] relates to Staphylococcus 133. The assay can be described thus: MIC agar dilution test, Staphylococcus 133. From the text:
(§1) It has already been disclosed in J. Med. Chem. 23, 1358 (1980) that 1-ethyl-6-fluoro-1,4-dihydro-4-oxo-7-(1-piperazinyl)-3-quinolinecarboxylicacid (norfloxacin) has antibacterial properties.
(§2) MIC values (agar dilution test/isosensitest agar)

Assay [2] deals with Klebsiella 6179. The assay is described as follows: MIC agar dilution test, Klebsiella 6179.
Text: as §1, §2

The subject of assay [3] is Staphylococcus 1756. The assay can be described thus: MIC agar dilution test, Staphylococcus 1756.
Text: as §1, §2

In assay [4] the test system is Klebsiella 8085. The assay is described as follows: MIC agar dilution test, Klebsiella 8085.
Text: as §1, §2

Assay [5] concerns E. coli Neumann. The assay is described as follows: MIC agar dilution test, E. coli Neumann.
Text: as §1, §2

The test system of assay [6] is Providencia 12052. The assay can be described thus: MIC agar dilution test, Providencia 12052.
Text: as §1, §2

The subject of assay [7] is Klebsiella 57 USA. The assay can be described thus: MIC agar dilution test, Klebsiella 57 USA.
Text: as §1, §2

For assay [8], the system named is Serratia 16040. The assay is described as follows: MIC agar dilution test, Serratia 16040.
Text: as §1, §2

Assay [9] has as its system Staphylococcus FK 422. The assay can be described thus: MIC agar dilution test, Staphylococcus FK 422.
Text: as §1, §2

Take `O=C(O)c1cn(C2CC2)c2cc(N3CCNC(c4ccccc4)C3)c(F)cc2c1=O` (stereo not drawn) [Example 1, 1-cyclopropyl-6-fluoro-1,4-dihydro-4-oxo-7-(3-phenyl-1-piperazinyl)-3-quinolinecarboxylic acid]: the MIC values in [1] turned out to be 0.015 µg/mL (≈ 0.0368 µM); in assay [2] it was 0.015 µg/mL (≈ 0.0368 µM); in assay [3], 0.015 µg/mL (≈ 0.0368 µM); in assay [4], 0.015 µg/mL (≈ 0.0368 µM); in assay [5], 0.015 µg/mL (≈ 0.0368 µM); in assay [6], 4 µg/mL (≈ 9.82 µM). Moreover, the MIC values in [7] is 0.06 µg/mL (≈ 0.147 µM); in assay [8], 8 µg/mL (≈ 19.6 µM); in assay [9], 0.015 µg/mL (≈ 0.0368 µM).

As to `O=C(O)c1cn(C2CC2)c2cc(N3CCNC(c4ccc(F)cc4)C3)c(F)cc2c1=O` (stereo not drawn) [Example 2], the MIC values in assay [1] was determined as 0.06 µg/mL (≈ 0.141 µM); in assay [2], 0.06 µg/mL (≈ 0.141 µM); in assay [3] it was 0.03 µg/mL (≈ 0.0705 µM); in assay [4], 0.015 µg/mL (≈ 0.0353 µM); in assay [5], 0.015 µg/mL (≈ 0.0353 µM); in [6], 8 µg/mL (≈ 18.8 µM). For the same molecule, the MIC values came out at 0.25 µg/mL (≈ 0.588 µM) in assay [7], 16 µg/mL (≈ 37.6 µM) in assay [8] and 0.03 µg/mL (≈ 0.0705 µM) in [9].

`O=C(O)c1cn(C2CC2)c2cc(N3CCNC(c4ccc(Cl)cc4)C3)c(F)cc2c1=O` (stereo not drawn) [Example 3]: the MIC values in assay [1] was 0.06 µg/mL (≈ 0.136 µM); in assay [2], 0.125 µg/mL (≈ 0.283 µM); in assay [3] it was 0.06 µg/mL (≈ 0.136 µM); in [4], 0.03 µg/mL (≈ 0.0679 µM); in [5] it was 0.03 µg/mL (≈ 0.0679 µM); in assay [6] it was 8 µg/mL (≈ 18.1 µM). In addition, the values for the MIC values in assay [7], in assay [8] and in assay [9] were 0.5 µg/mL (≈ 1.13 µM), 16 µg/mL (≈ 36.2 µM) and 0.06 µg/mL (≈ 0.136 µM), respectively.

`COc1ccc(C2CN(c3cc4c(cc3F)c(=O)c(C(=O)O)cn4C3CC3)CCN2)cc1` (stereo not drawn) [Example 5]: the MIC values in assay [1] worked out at 0.06 µg/mL (≈ 0.137 µM); in [2], 0.125 µg/mL (≈ 0.286 µM); in assay [3], 0.03 µg/mL (≈ 0.0686 µM); in [4], 0.03 µg/mL (≈ 0.0686 µM); in assay [5] it was 0.03 µg/mL (≈ 0.0686 µM); in assay [6], 8 µg/mL (≈ 18.3 µM). Moreover, the MIC values in assay [7] stood at 0.5 µg/mL (≈ 1.14 µM); in [8], 16 µg/mL (≈ 36.6 µM); in assay [9] it was 0.06 µg/mL (≈ 0.137 µM).

For the molecule `O=C(O)c1cn(C2CC2)c2cc(N3CCNC(c4ccc(N5CCCCC5)cc4)C3)c(F)cc2c1=O` (stereo not drawn) [Example 8], the MIC values was 0.03 µg/mL (≈ 0.0612 µM) in assay [1], 0.015 µg/mL (≈ 0.0306 µM) in assay [3] and 0.015 µg/mL (≈ 0.0306 µM) in [9].

On to `O=C(O)c1cn(C2CC2)c2cc(N3CCNC(c4cccc([N+](=O)[O-])c4)C3)c(F)cc2c1=O` (stereo not drawn) [Example 11], for which the MIC values was 0.06 µg/mL (≈ 0.133 µM) in [1], 0.06 µg/mL (≈ 0.133 µM) in assay [3] and 0.125 µg/mL (≈ 0.276 µM) in assay [9].

Turning to `O=C(O)c1cn(C2CC2)c2cc(N3CCNC(c4cccs4)C3)c(F)cc2c1=O` (stereo not drawn) [Example 12], the MIC values in assay [1] was found to be 0.03 µg/mL (≈ 0.0726 µM); in assay [2], 0.125 µg/mL (≈ 0.302 µM); in assay [3], 0.03 µg/mL (≈ 0.0726 µM); in assay [4] it was 0.015 µg/mL (≈ 0.0363 µM); in assay [5], 0.015 µg/mL (≈ 0.0363 µM); in [6], 8 µg/mL (≈ 19.3 µM). Further, the MIC values in [7] amounted to 0.5 µg/mL (≈ 1.21 µM); in assay [8], 16 µg/mL (≈ 38.7 µM); in assay [9] it was 0.06 µg/mL (≈ 0.145 µM).

`Br.O=C(O)c1cn(C2CC2)c2cc(N3CCNC(c4ccc(O)cc4)C3)c(F)cc2c1=O` (stereo not drawn) [Example 14, 1-cyclopropyl-6-fluoro-1,4-dihydro-7-[3-(4-hydroxyphenyl)-1-piperazinyl]-4-oxo-3-quinolinecarboxylic acid hydrobromide]: the MIC values in assay [1] was determined as 0.125 µg/mL; in assay [2] it was 0.25 µg/mL; in [3], 0.5 µg/mL; in assay [4], 0.03 µg/mL; in assay [5], 0.015 µg/mL; in assay [6] it was 32 µg/mL. Besides, the results for the MIC values in [7], in [8] and in assay [9] were 0.125 µg/mL, 8 µg/mL and 0.125 µg/mL, respectively.

In the case of `O=C(O)c1cn(C2CC2)c2c(F)c(N3CCNC(c4ccccc4)C3)c(F)cc2c1=O` (stereo not drawn) [Example 16, 1-cyclopropyl-6,8-difluoro-1,4-dihydro-4-oxo-7-(3-phenyl-1-piperazinyl)-3-quinolinecarboxylic acid], the MIC values in [1] came to 0.015 µg/mL (≈ 0.0353 µM); in assay [2], 0.015 µg/mL (≈ 0.0353 µM); in assay [3], 0.015 µg/mL (≈ 0.0353 µM); in [4] it was 0.015 µg/mL (≈ 0.0353 µM); in assay [5], 0.015 µg/mL (≈ 0.0353 µM); in [6], 4 µg/mL (≈ 9.4 µM). The MIC values in assay [7] was 0.125 µg/mL (≈ 0.294 µM); in assay [8], 2 µg/mL (≈ 4.7 µM); in assay [9] it was 0.015 µg/mL (≈ 0.0353 µM).

Regarding `CCn1cc(C(=O)O)c(=O)c2cc(F)c(N3CCNCC3)cc21` [Norfloxacin, 1-ethyl-6-fluoro-1,4-dihydro-4-oxo-7-(1-piperazinyl)-3-quinolinecarboxylicacid, reference compound], the MIC values in assay [1] amounted to 1 µg/mL (≈ 3.13 µM); in assay [2], 1 µg/mL (≈ 3.13 µM); in [3] it was 1 µg/mL (≈ 3.13 µM); in assay [4], 0.25 µg/mL (≈ 0.783 µM); in assay [5], 0.125 µg/mL (≈ 0.391 µM); in assay [6], 128 µg/mL (≈ 401 µM). In addition, the MIC values was determined as 1 µg/mL (≈ 3.13 µM) in assay [7], 32 µg/mL (≈ 100 µM) in [8] and 2 µg/mL (≈ 6.26 µM) in [9].
